Laboratory results: US20190174748A1, “COMPOSITION FOR DELIVERY OF ACTIVE AGENTS TO AN ANIMAL” (priority 2015, published 2019)

What was measured:
[1] = system: Rodents; details: rodents ingesting baits; cited from earlier work
[2] = system: BALB/C mice; details: baits at 4% Warfarin activity
Excerpt: Experimental Methods: Ten-twelve week old female BALB/C mice are used. Mice are fed ad libitum. Each experimental group is housed in a separate cage.
The feed intake and kill effect on the mice are monitored.

[3] = system: rats; details: 250-500 g rats, baits at 4% Warfarin activity
Excerpt: Experimental Methods: 250-500 g rats are used. Rats are fed ad libitum. Each experimental group is housed in a separate cage.
The feed intake and kill effect on the rats are monitored.

[4] = system: BALB/C mice; experiment: Oral administration of OVA composition to mice: OVA specific IgG, IgA (ELISA) and ASC; format: in vivo; details: mice inoculated at 0 and 3 weeks, sampled at week 4
Experimental: Ovalbumin is orally administered to mice to test the efficacy of the inventive compositions in inducing an immune response.
Ovalbumin composition: Ovalbumin (1 mg/g of ovalbumin, Sigma, St. Louis, Mo.,) is incorporated into the inventive composition as described in Example 5. Three groups of 4 mice each are inoculated as follows: 1) ovalbumin (OVA) in the composition, administered orally, 2) OVA solution, administered subcutaneously (SC), 3) antigen free composition administered orally. Mice are inoculated at 0 and 3 weeks. Each dose administers a total 100 mg of dry composition mixed with corn oil at a ratio of 1:2 w/w of dry composition/oil, coated onto feed pellets. At week 4 each mouse is euthanized and serum and spleen cells are harvested.
Immunological assays: Serum is assayed for IgG and IgA by ELISA. ELISA is performed using OVA absorbed to polystyrene plates. Samples are placed in wells in triplicate at a 1:25 dilution for serum. Goat anti-mouse antibody conjugated with horse radish peroxidase is used, followed by an orthophenylenediamine substrate (Sigma, St. Louis, Mo., U.S.A.). Optical density of each well is determined by placing the plate in a microtiter plate spectrophotometer and reading the plate at 490 nm. Spleen cells are tested for antibody secreting cells (ASC) specific for OVA, using techniques described previously.

[5] = Degradation of unprotected OVA in simulated gastric fluid with 0.08% pepsin, pH 2; format: in vitro ADME; details: pH 2, 37° C.
Experimental: Western Blot: the compositions were lysed with RIPA buffer as described above, and a calculated amount equivalent to 12 μg of protein per sample was loaded on a 10% SDS-polyacrylamide gradient gel (SDS-PAGE, Bio-Rad, Hercules, Calif.). Proteins were transferred onto a PVDF membrane (Bio-Rad) and blocked for 1 h with 5% non-fat milk in PBS containing 0.5% Tween-20 (PBS-T). Blots were incubated with an appropriate primary antibody at 1:5000 dilutions for 1 h at room temperature. After washing with PBS-T (3×10 mL, 5 min. each), the membranes were incubated with an appropriate HRP-conjugated secondary antibody (EMD Millipore Corporation, Billerica, Mass., USA) at 1:5000 dilution for 1 h. After washing with PBS-T (3×10 mL, 5 min. each), chemiluminescent films were developed with an ECL substrate (Amsheram Biosciences).
To evaluate the loss of activity of a protein antigen following a typical gastric exposure, non-encapsulated OVA (10 mg) was incubated in 10 ml simulated gastric fluid containing 0.08% pepsin at pH-2 for 2 h at 37° C. on a shaker. Medium was withdrawn at 15 min, 30 min, 60 min and 120 min incubation times, and the amount of residual OVA was analyzed using Western Blot analysis as described above.

Molecule: CC(=O)CC(c1ccccc1)c1c(O)c2ccccc2oc1=O (stereo not shown) [Warfarin]
- time to become unconscious [1]: 1 to 2 h
- time to obvious symptoms of poisoning [1]: 15 to 30 min
- time to recovery after sub lethal amount [1]: ≤ 8 h
- kill effect after 8 h from feeding [2]: all group 2 mice remain alive
- kill effect after 8 h from feeding [3]: all group 2 rats remain alive

Molecule: ovalbumin [non-encapsulated OVA, ovalbumin, model vaccine / protein antigen, unprotected]
- OVA specific serum IgA, IgG and ASC secreting cells [4]: equally increased

B1: ovalbumin (protein, UniProt P01012 2-386, looked up)
Ovalbumin: GSIGAASMEFCFDVFKELKVHHANENIFYCPIAIMSALAMVYLGAKDSTRTQINKVVRFDKLPGFGDSIEAQCGTSVNVHSSLRDILNQITKPNDVYSFSLASRLYAEERYPILPEYLQCVKELYRGGLEPINFQTAADQARELINSWVESQTNGIIRNVLQPSSVDSQTAMVLVNAIVFKGLWEKAFKDEDTQAMPFRVTEQESKPVQMMYQIGLFRVASMASEKMKILELPFASGTMSMLVLLPDEVSGLEQLESIINFEKLTEWTSSNVMEERKIKVYLPRMKMEEKYNLTSVLMAMGITDVFSSSANLSGISSAESLKISQAVHAAHAEINEAGREVVGSAEAGVDAASVSEEFRADHPFLFCIKHIATNAVLFFGRCVSP
notes: ovalbumin, model vaccine / protein antigen, unprotected
- Remaining activity (%) ([5]; 15 min in simulated gastric fluid, relative to pre-exposure activity): 61%
- Remaining activity (%) ([5]; 30 min in simulated gastric fluid): 55%
- Remaining activity (%) ([5]; 60 min in simulated gastric fluid): 38%
- Remaining activity (%) ([5]; 120 min in simulated gastric fluid): 2%
